What follows are compounds tested against Mitochondrial complex I; NADH oxidoreductase (Bos taurus, UniProt P25708+P52505) (assay: Inhibition of bovine mitochondrial NADH-ubiquinone oxidoreductase by NADH oxidase assay).
Chain of Mitochondrial complex I; NADH oxidoreductase (P25708 21-464 limits assumed, other chains not shown): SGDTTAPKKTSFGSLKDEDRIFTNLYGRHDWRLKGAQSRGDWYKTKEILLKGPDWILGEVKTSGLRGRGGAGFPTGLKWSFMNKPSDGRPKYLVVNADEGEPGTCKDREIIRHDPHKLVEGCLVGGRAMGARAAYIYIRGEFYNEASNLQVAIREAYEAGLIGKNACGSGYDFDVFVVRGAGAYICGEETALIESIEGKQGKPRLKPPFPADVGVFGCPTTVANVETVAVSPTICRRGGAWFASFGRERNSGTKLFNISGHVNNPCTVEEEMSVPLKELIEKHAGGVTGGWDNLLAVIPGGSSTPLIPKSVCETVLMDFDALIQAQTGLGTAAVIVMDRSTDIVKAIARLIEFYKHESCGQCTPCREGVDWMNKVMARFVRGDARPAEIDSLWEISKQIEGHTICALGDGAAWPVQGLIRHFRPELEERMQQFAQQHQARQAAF
Format: protein-complex assay
CCCCCCCCCC[C@@H](O)[C@H]1CC[C@H]([C@H]2CC[C@H]([C@H](O)CCCC(CCC)CCC)O2)O1 was tested, and the IC50 was 27 nM. CCCCC(CC)CCC[C@@H](O)[C@H]1CC[C@H]([C@H]2CC[C@H]([C@H](O)CCCC(CC)CCCC)O2)O1 (some centres not stated) was tested, and the IC50 was 870 nM. Work on CCCCCCCCCCCC[C@@H](O)[C@H]1CC[C@H]([C@H]2CC[C@H]([C@H](O)CCCCCCCCCCCC)O2)O1 yielded an IC50 of 9 nM. For CCCCCCCCCCCC[C@@H](O)[C@H]1CC[C@H]([C@H]2CC[C@H]([C@H](O)CCCCCCCC)O2)O1, the IC50 was 7.5 nM. For CCCCCCCCCCCCCC[C@@H](O)[C@H]1CC[C@H]([C@H]2CC[C@H]([C@@H](C)O)O2)O1, the IC50 was 410 nM. Compound CCCCCCCCCC[C@@H](O)[C@H]1CC[C@H]([C@H]2CC[C@H]([C@H](O)CC)O2)O1 has an IC50 of 45 nM. For CCCCCCCC[C@@H](O)[C@H]1CC[C@H]([C@H]2CC[C@H]([C@H](O)CCCCCCCC)O2)O1, the IC50 was 45 nM. CCCCCCCCCC[C@@H](O)[C@H]1CC[C@H]([C@H]2CC[C@H]([C@H](O)CCCCCCCCCC)O2)O1 [dleta-lac-Acetogenin] was tested, and the IC50 was 1.7 nM. For CCCC(CCC)CCC[C@@H](O)[C@H]1CC[C@H]([C@H]2CC[C@H]([C@H](O)CCCC(CCC)CCC)O2)O1, the IC50 was 1500 nM. With CCCCCCCCCCCCCC[C@@H](O)[C@H]1CC[C@H]([C@H]2CC[C@H]([C@H](O)CCCCCC)O2)O1 the IC50 was 34 nM. CCCCCCCCCC[C@@H](O)[C@H]1CC[C@H]([C@H]2CC[C@H]([C@@H](C)O)O2)O1 gave an IC50 of 280 nM. CCCCCCCCCC[C@@H](O)[C@H]1CC[C@H]([C@H]2CC[C@H]([C@H](O)CCCCCC)O2)O1 was tested, and the IC50 was 3.2 nM.
